Test results reported in EPA's ToxValDB 9.5.

Tests used:
[1] = tested on: Rattus norvegicus
[2] = tested on: Rattus norvegicus; settings: oral
[3] = tested on: Rattus norvegicus; settings: oral, gavage, Sprague-Dawley
[4] = short-term, duration: 4 weeks, oral, gavage, F, Sprague-Dawley
[5] = short-term, duration: 4 weeks, oral, gavage, M, Sprague-Dawley
[6] = reproduction developmental, duration: 7 days, F, generation: P0, P0: Developmental: Whole Body: Litter Size + P0: Developmental: Whole Body: Male Pups per Pups Sexed
[7] = short-term, duration: 21 days, M, Endocrine: Multi-Organ: Estradiol, Serum + Endocrine: Multi-Organ: Follicular Stimulating Hormone (FSH), Serum + Endocrine: Multi-Organ: …
[8] = short-term, duration: 21 days, M, Endocrine: Multi-Organ: Estradiol, Serum + Endocrine: Multi-Organ: Follicular Stimulating Hormone (FSH), Serum + Metabolic: Multi-Organ: …
[9] = short-term, duration: 21 days, M, Endocrine: Multi-Organ: Testosterone (T), Serum + Reproductive: Epididymis: Epididymis Weight, Absolute + Reproductive: Testis: Testis …
[10] = short-term, duration: 28 days, gavage, F, Sprague-Dawley, Clinical Observation: Locomotor activity decrease, Crouching position + Functional Observational Battery: Reactivity decrease + Body Weight …
[11] = short-term, duration: 28 days, gavage, M, Sprague-Dawley, Clinical Observation: Locomotor activity decrease, Crouching position + Functional Observational Battery: Reactivity decrease + Body Weight …
[12] = subchronic, gavage, M, Sprague-Dawley, Hematology: RBC decrease, Hgb decrease, Ret increase + Blood Chemistry: Cho increase, PL increase + Absolute Organ Weight: Kidney increase…
[13] = short-term, duration: 28 days, gavage, F, Sprague-Dawley, Urinalysis: Volume increasep H decrease + Hematology: APTT increase, PT increase + Blood Chemistry: TP increase, Glu decrease, Cho increase…
[14] = short-term, duration: 28 days, gavage, M, Sprague-Dawley, Urinalysis: Volume increasep H decrease + Hematology: APTT increase, PT increase + Blood Chemistry: TP increase, Glu decrease, Cho increase…
[15] = subchronic, gavage, M, Sprague-Dawley, Clinical Observation: Salivation Locomotor activity decrease, BradypneaIncomplete eyelid opening + Body Weight Changes: decrease + Blood …

For C=C(C)C [Isobutene], the NOAEL ([1]; reproduction developmental, duration: 17 days, inhalation, F, Wistar) was 18400 mg/m3, the LOAEL [1, 4] was 149 mg/kg-day and the NOAEL [1, 4] was 14.9 mg/kg-day. The LOAEL [1, 5] was 149 mg/kg-day, the NOAEL [1, 5] was 14.9 mg/kg-day and the NOAEL ([1]; subchronic, duration: 13 weeks, inhalation, F, Sprague-Dawley) was 18400 mg/m3. For the same molecule, the NOAEL ([1]; subchronic, duration: 13 weeks, inhalation, M, Sprague-Dawley) was 18400 mg/m3 and the NOAEL ([2]; short-term, duration: 28 days, gavage, Sprague-Dawley) was 149 mg/kg-day.

O=C(O)C(F)(F)C(F)(F)C(F)(F)C(F)(F)C(F)(F)C(F)(F)C(F)(F)C(F)(F)C(F)(F)C(F)(F)C(F)(F)C(F)(F)F [Perfluorotridecanoic acid] gave an NOAEL ([3]; developmental, duration: 7 days, M, generation: F1, F1: Developmental: Testis: Fetal Leydig cell number + F1: Developmental: Trunk: Anogenital Distance + F1: Developmental: Whole Body: Pup …) of 5 mg/kg-day, an LOAEL [3, 6] of 10 mg/kg-day and an NOAEL [3, 6] of 5 mg/kg-day. It also gave an LOAEL ([3]; reproduction developmental, duration: 7 days, F, generation: P0, P0: Developmental: Whole Body: Litter Size + P0: Developmental: Whole Body: Male Pups per Pups Sexed + P0: Reproductive: Whole Body: Birth …) of 1 mg/kg-day, an LOAEL ([3]; reproduction developmental, duration: 7 days, F, generation: P0, P0: Reproductive: Whole Body: Birth rate) of 1 mg/kg-day and an NOAEL ([3]; reproduction developmental, duration: 7 days, F, generation: P0, P0: Whole Body: Whole Body: Clinical Observations, Unspecified + P0: Whole Body: Whole Body: Maternal Body Weight) of 10 mg/kg-day. For the same molecule, the LOAEL ([3]; reproduction developmental, duration: 7 days, M, generation: F1, F1: Endocrine: Multi-Organ: Testosterone (T), Serum) was 1 mg/kg-day, the LOAEL [3, 7] was 5 mg/kg-day and the NOAEL [3, 7] was 1 mg/kg-day. For the same molecule, the LOAEL [3, 8] was 10 mg/kg-day, the NOAEL [3, 8] was 5 mg/kg-day and the LOAEL [3, 9] was 5 mg/kg-day. For the same molecule, the NOAEL [3, 9] was 1 mg/kg-day and the NOAEL ([3]; short-term, duration: 21 days, M, Whole Body: Whole Body: Body Weight Change + Whole Body: Whole Body: Body Weight, Absolute + Whole Body: Whole Body: Clinical Observation …) was 10 mg/kg-day.

CCCCCCCCCCCCCCCCCC(=O)[O-].CCCCCCCCCCCCCCCCCC(=O)[O-].[Ca+2] [Calcium stearate] showed an NOAEL ([1]; subchronic, duration: 13 weeks, dermal, non-occlusive, F, Sprague-Dawley) of 2000 mg/kg-day, an NOAEL ([1]; subchronic, duration: 13 weeks, dermal, non-occlusive, M, Sprague-Dawley) of 2000 mg/kg-day and an NOAEL ([2]; short-term, duration: 28 days, gavage, M, Sprague-Dawley, Urinalysis: Bilirubin increase + Absolute Organ Weight: Spleen increase) of 2000 mg/kg-day.

Molecule Nc1cc(C(=O)O)ccc1Cl [3-Amino-4-chlorobenzoic acid] has an NOEL ([2]; subchronic, gavage, M, Sprague-Dawley, Clinical Observation: Transient salivation + Histopathology: Mesentric lymph node-Granuloma R) of 200 mg/kg-day.

Work on CC(C)c1ccc2oc3nc(N)c(C(=O)O)cc3c(=O)c2c1 [Amlenanox] yielded an NOEL ([2]; subchronic, duration: 35 days, gavage, M/F, Wistar, Blood Chemistry: ALP increase + Absolute Organ Weight: Cecum increase, Stomach increase + Relative Organ Weight: Carcass increase, Cecum …) of 200 mg/kg-day.

CCO[Si](CCCN)(OCC)OCC [3-Aminopropyltriethoxysilane] showed an NOAEL ([2]; chronic, duration: 91 days, gavage, M/F, CD(SD), Deaths + Clinical Observation: Rales Wet and/or dried material (red, yellow, brown and/or clear) on various body surfaces Abnormal excreta…) of 200 mg/kg-day.

Work on CN1CCNCC1 [1-Methylpiperazine] yielded an NOEL ([2]; subchronic, gavage, M, Sprague-Dawley, Body Weight Changes: Gain decrease(trend)Gain rate decrease + Hematology: WBC decrease(trend)RET decrease, Eosinophil ratio decrease + Blood…) of 80 mg/kg-day.

N#Cc1cccc([N+](=O)[O-])c1 [Benzonitrile, 3-nitro-] gave an NOEL ([2]; short-term, duration: 28 days, gavage, M/F, Deaths + Clinical Observation: Paralytic gait Piloerection Reddish tears + Body Weight Changes: Body weight gain decrease + Hematology: WBC…) of under 0.5 mg/kg-day.

C=CC(C)(O)CCC=C(C)C (stereo not drawn) [Linalool] was tested, and the NOAEL ([2]; short-term, duration: 28 days, gavage, M/F, CD/BR, Deaths + Blood Chemistry: TP increase, Alb increase, Ca increase, Glu decrease + Absolute Organ Weight: Liver increase, Kidney increase + …) was 160 mg/kg-day.

Molecule O=C(O)c1cccc([N+](=O)[O-])c1 [3-Nitrobenzoic acid] has an NOEL ([2]; subchronic, gavage, M, Sprague-Dawley, Body Weight Changes: decrease + Hematology: RBC decrease + Blood Chemistry: TP decrease, A/G increase, Pi increase, K increase, Cl decrease…) of 20 mg/kg-day.

CCn1cc(C(=O)[O-])c(=O)c2cc3occc3nc21.[Na+] showed an NOEL ([2]; chronic, duration: 26 weeks, gavage, M/F, Clinical Observation: Salivation + Body Weight Changes: Gain decrease + Hematology: WBC decrease + Blood Chemistry: A/G increase + Organ …) of 10 mg/kg-day.

Work on Clc1cccc2ccccc12 [1-Chloronaphthalene] yielded an LOEL [2, 10] of 100 mg/kg-day, an NOEL [2, 10] of 30 mg/kg-day and an LOEL [2, 11] of 100 mg/kg-day. It also gave an NOEL [2, 11] of 30 mg/kg-day.

CC(C)(C)c1cc(CCC(=O)O)cc(C(C)(C)C)c1O [Fenozan] showed an NOEL ([2]; subchronic, duration: 90 days, gavage, M/F, Blood Chemistry: GPT increase, TP increase, GLB increase, T-CHO increase + Organ Weight: Liver increase + Histopathology: Liver - …) of 3 mg/kg-day.

In the case of CC(=O)Nc1ccccc1 [N-Acetylaminobenzene], the NOAEL ([2]; subchronic, duration: 30 days, gavage, M, Sprague-Dawley, Clinical Observation: Decreased locomotor activity Reddish Tear SalivationCyanosis + Hematology: HGB decrease, HCT decrease, MCHC decrease…) is reported as under 22 mg/kg-day.

With O=C/C=C/[O-].[Na+] [Malonaldehyde, sodium salt] the NOEL ([2]; subchronic, duration: 13 weeks, gavage, M/F, Fischer 344, Deaths + Clinical Observation: Rough hair coats Red exudate around the eyes Impairment of hindleg motor ability + Body Weight Changes: …) was 30 mg/kg-day.

In the case of CCCCCCCCCCCCCCCCCC[N+](C)(C)CCCCCCCCCCCCCCCCCC.[Cl-] [Dimethyldioctadecylammonium chloride], the NOAEL ([2]; short-term, duration: 28 days, gavage, M/F, Wistar, Body Weight Changes: Weight gain decrease + Hematology: WBC increase + Histopathology: Adrenal: Necrosis, cortex Adrenal: Granulocytes …) is reported as 100 mg/kg-day.

ClCCc1ccccc1 [1-Chloro-2-phenylethane] was tested, and the NOEL ([2]; short-term, duration: 28 days, gavage, M/F, Sprague-Dawley, Food Consumption: decrease + Urinalysis: Volume increase, Prot decrease + Hematology: RBC increase, MCV decrease, MCH decrease + Absolute …) was 60 mg/kg-day.

C=CN1CCCC1=O [Vinylpyrrolidone] gave an NOAEL ([2]; subchronic, duration: 90 days, drinking water, M/F, Wistar, Water Consumption: decrease + Blood Chemistry: TP decrease, Glob decrease, Alb decrease + Absolute Organ Weight: Kidney increase) of 4.56 mg/kg-day and an NOAEL ([2]; subchronic, duration: 90 days, gavage, M/F, Wistar, Food Consumption: decrease + Water Consumption: increase + Hematology: PLT increase + Absolute Organ Weight: Liver increase + Histopathology…) of 60 mg/kg-day.

With C/C=C/C=C/C=O [(2E,4E)-2,4-Hexadienal] the NOEL ([2]; chronic, duration: 14 weeks, gavage, M/F, Fischer 344, Clinical Observation: Hypersalivation + Body Weight Changes: decrease + Histopathology: Stomach/forestomach-Epithelium hyperplasia Stomach/…) was 15 mg/kg-day.

Molecule COCCOCCOCCO [2-[2-(2-Methoxyethoxy)ethoxy]ethanol] has an NOAEL ([2]; chronic, duration: 91 days, drinking water, M/F, Sprague-Dawley, Deaths + Body Weight Changes: Body weight gain decrease + Food Consumption: decrease + Water Consumption: decrease + Absolute Organ Weight: …) of 400 mg/kg-day.

CC(O)(P(=O)(O)O)P(=O)(O)O [Etidronic acid] showed an NOAEL ([2]; subchronic, duration: 90 days, diet, M/F, Body Weight Changes: decrease + Food Consumption: decrease + Hematology: RBC increase, HGB decrease, HCT decrease + Absolute Organ Weight: …) of over 2880 mg/kg-day.

Sc1ccccc1 [Benzenethiol] was tested, and the LOAEL [2, 12] was 0.4 mg/kg-day, the LOEL [2, 12] was 0.4 mg/kg-day and the NOAEL [2, 12] was under 0.4 mg/kg-day. For the same molecule, the NOEL [2, 12] was under 0.4 mg/kg-day.

Molecule CN(C)CCCCCCN(C)C [N,N,N',N'-Tetramethyl-1,6-hexanediamine] has an NOEL ([2]; subchronic, gavage, M, Sprague-Dawley, Histopathology: Lungs/ bronchus a"Vacuolation, bronchial epithelium Epididymis- Decrease, sperm) of 10 mg/kg-day.

O=[N+]([O-])c1cc([As](=O)(O)O)ccc1O [4-Hydroxy-3-nitrophenylarsonic acid] gave an NOEL ([2]; subchronic, duration: 13 weeks, diet, M/F, Fischer 344, Deaths + Clinical Observation: Ruffled fur Hyperexcitability Ataxia Trembling Slight inactivity + Body Weight Changes: decrease + Relative …) of under 4.8 mg/kg-day.

Molecule O=C(O)C1CCC(c2ccc(Cl)cc2)CC1 (stereo not drawn) has an NOEL ([2]; short-term, duration: 28 days, gavage, M/F, Deaths + Clinical Observation: Abnormal gait Lethargy Piloerection Ptosis + Blood Chemistry: GPT increase, ALP increase, TP increase, ALB …) of under 12 mg/kg-day.

CCNc1cccc2ccccc12 [1-Naphthalenamine, N-ethyl-] gave an NOEL ([2]; short-term, duration: 28 days, gavage, M/F, Sprague-Dawley, Deaths + Clinical Observation: Brown urine Soft feces + Functional Observational Battery: Motor activity decrease + Body Weight Changes: …) of 12 mg/kg-day.

C1CCC2CCCCC2C1 (stereo not drawn) [Decalin] gave an LOEL [2, 13] of 200 mg/kg-day, an NOEL [2, 13] of 40 mg/kg-day and an LOEL [2, 14] of 40 mg/kg-day. For the same molecule, the NOEL [2, 14] was under 40 mg/kg-day.

COc1ccc(C)cc1N [2-Methoxy-5-methylaniline] was tested, and the NOEL ([2]; short-term, duration: 28 days, gavage, M/F, Clinical Observation: Salivation + Body Weight Changes: Weight gain decrease + Food Consumption: decrease + Urinalysis: Occult blood RBC …) was 2 mg/kg-day.

COCc1ccc(COC)cc1 [1,4-Bis(methoxymethyl)benzene] showed an NOAEL [2, 15] of 50 mg/kg-day and an NOEL [2, 15] of 50 mg/kg-day.

For CCCCCCC[CH2][Sn]([CH2]CCCCCCC)([S]CC(=O)OCCCCCC(C)C)[S]CC(=O)OCCCCCC(C)C [Dioctyltin-S,S'-bis(isooctylmercaptoacetate)], the NOAEL ([2]; subchronic, duration: 13 weeks, diet, Sprague-Dawley) was 14.4 mg/kg-day.
